Assay results reported in article PMC4593073, “Non-invasive imaging and cellular tracking of pulmonary emboli by near-infrared fluorescence and positron-emission tomography” (Nature Communications, 2015).
Where no end group is shown, it is not given here.

Key:
[1] = Acute toxicology: serum panel of hepatic and renal functions; type: in vivo, C57BL/6J mice; set-up: Phosphorus / Calcium: unit not given here; conditions: mean±s.e.m., n=3
Description: To address the safety profile of this novel functional imaging platform, PAR1–RIP probe was administered in C57BL/6J mice at a concentration threefold higher than used for the imaging studies (150 picomoles, 100 μl). […] The serum was pipetted into clean tubes and frozen before shipment to IDEXX BioResearch (Sacramento, CA) for a comprehensive panel of hepatic and renal functions. All tests were performed using an Olympus 5400 analyser. Measurements of the following enzymes and electrolytes were provided: alkaline phosphatase, alanine aminotransferase, aspartate aminotransferase, creatine phosphokinase, total protein, direct bilirubin, indirect bilirubin, total bilirubin, globulin, blood urea nitrogen, creatinine, cholesterol, glucose, calcium, phosphorus, bicarbonate, chloride, potassium, sodium and haemolysis index.
Toxicology results are presented as mean±s.e.m. Data were analysed using GraphPad Prism (GraphPad Software Inc., San Diego, CA) and statistical differences among experimental groups of animals were detected using one-way analysis of variance (ANOVA) followed by Dunnett’s post-test; P<0.05 was considered statistically significant.

thrombin (factor IIa) = molecular target: T1, thrombin (factor IIa) (Homo sapiens, UniProt P00734); test: Peptide kinetics: proteolysis of the probe followed by HPLC/mass spectrometry; type: biochemical; conditions: HPLC, 37 °C, PBS pH 7.4, mean±s.d., n=3
T1 construct: Human clotting factors IIa (thrombin), VIIa, IXa, Xa, XIa, plasmin and aPC; purchased Haematologic Technologies
From the text: Comparison of the rates of protease-mediated hydrolysis of a tripeptide chromogenic substrate (P3–P1), quenched oligopeptide substrate (P4–P4′) and our PAR1–RIP probe (P4–P14′) emphasize the value of a larger surface area of interaction between enzyme and substrate in RIP probes. When substrates have limited potential contacts with the protease, and the majority of them are shared with homologous enzymes, their turnover is non-specific. For example, the chromogenic substrate d–Phe–Pro–Arg–paranitroanilide is not only an excellent substrate for thrombin but also for many other proteases (Fig. 3f). As substrate length increases to include four additional residues on the prime side of the scissile bond, specificity increases 10-fold (Fig. 3g). Inclusion of the 10 amino acids responsible for exosite binding to thrombin further increases the relative specificity eightfold and reduces the KM to a physiologically relevant value of 0.2±0.1 μM (mean±s.d., n=3; Fig. 3h). […]
Human clotting factors IIa (thrombin), VIIa, IXa, Xa, XIa, plasmin and aPC were obtained from Haematologic Technologies (Vermont, USA). Kinetics studies of probe digestion were measured by HPLC over the course of 1 h at 37 °C, using 10 nM of enzyme and 1 μM of PAR1–RIP in PBS (pH 7.4). […]

Cells grown on plastic = test: Uptake of the cell viability dye DRAQ7; type: cell-based; conditions: 50 μM, 2 hrs
Description: Discrimination between on and off states in PAR1–RIP observed in vitro translated in vivo. To gauge the interaction of RIP probes with cells, we measured their toxicity at ∼6- to 600-fold excess of the intended use in vivo. […] Inclusion of the highly specific thrombin inhibitor hirudin blocked these protease-dependent effects and confirmed the key role for thrombin in this process. Cells grown on plastic were incubated with […] pro-peptide to confirm that uptake of the fluorescent dye DRAQ7 only occurred in the protease-treated form (Supplementary Fig. 3a) not the pro-peptide alone (Supplementary Fig. 3b). Concentrations required to mediate toxicity in cell culture exceed those used in animal studies described below by several orders of magnitude, but provide a useful readout nonetheless.
Supplementary Figure 3 – The cellular effects of the active PAR1-RIP peptide. High-doses (50 μM) of the cleaved PAR1-RIP lead to
concentrations for extended periods of time (2 hrs). Scale bars, 20 µm.
(1 picture or pasted object on this page, not shown here)

[2] = mouse serum 6 hs after 150 picomoles
[3] = mouse serum 6 hs after 150 picomoles, marked *
[4] = mouse serum 48 hs after 150 picomoles
[5] = mouse serum 72hs after 150 picomoles
[6] = mouse serum 72hs after 150 picomoles, marked *

With “FVQWFSKFLGKLLPRSFLLQDPNDQYEPF [PAR1–RIP]” the “Alanine Aminotransferase (ALT)” value [1, 2] was 29.7±1.4 U/L, the Albumin [1, 2] was 2.7 ± 0.1 g/dL and the “Aspartate Aminotransferase (AST)” value [1, 2] was 61.7 ± 4.0 U/L. The “Blood Urea Nitrogen (BUN)” value [1, 2] was 27.0 ± 2.6 mg/dL, the Calcium [1, 2] was 9.1 ± 0.1 and the Chloride [1, 2] was 116.0 ± 0.6 mEq/ L. The Cholesterol [1, 2] was 79 ± 0.6 mg/dL, the Creatinine [1, 2] was 0.2 ± 0.0 mg/dL and the “Creatinine Phosphokinase (CPK)” value [1, 2] was 144.7 ± 27.4 U/L. For the same sequence, the “Direct Bilirubin” value [1, 2] was 0.0 ± 0.0 mg/dL, the Globulin [1, 2] was 1.9 ± 0.0 g/dL and the Glucose [1, 2] was 238.7 ± 2.9 mg/dL. The “Indirect Bilirubin” value [1, 2] was 0.1 ± 0.0 mg/dL, the Phosphorus [1, 2] was 6.9 ± 0.2 and the Potassium [1, 2] was 4.7 ± 0.1 mEq/ L. The Sodium [1, 2] was 152.3 ± 0.3 mEq/ L, the “Total Bilirubin” value [1, 2] was 0.1 ± 0.0 mg/dL and the “Total Protein” value [1, 2] was 4.6 ± 0.1 g/dL. For the same sequence, the Alkaline phosphatase [1, 3] was 149.7 ± 12.8 U/L, the Bicarbonate [1, 3] was 13.3 ± 0.3 mEq/ L and the “Alanine Aminotransferase (ALT)” value [1, 4] was 26.3 ± 0.3 U/L. For the same sequence, the Albumin [1, 4] was 2.6 ± 0.1 g/dL, the Alkaline phosphatase [1, 4] was 120.7 ± 6.4 U/L and the “Aspartate Aminotransferase (AST)” value [1, 4] was 57.6 ± 6.3 U/L. For the same sequence, the Bicarbonate [1, 4] was 15.0 ± 0.0 mEq/ L, the “Blood Urea Nitrogen (BUN)” value [1, 4] was 23.7 ± 1.4 mg/dL and the Calcium [1, 4] was 9.0 ± 0.1. The Chloride [1, 4] was 110.3 ± 0.8 mEq/ L, the Creatinine [1, 4] was 0.2 ± 0.0 mg/dL and the “Creatinine Phosphokinase (CPK)” value [1, 4] was 150.3 ± 38.0 U/L. For the same sequence, the “Direct Bilirubin” value [1, 4] was 0.1 ± 0.0 mg/dL, the Globulin [1, 4] was 2.0 ± 0.1 g/dL and the Glucose [1, 4] was 203.0 ± 3.5 mg/dL. The “Indirect Bilirubin” value [1, 4] was 0.1 ± 0.0 mg/dL, the Phosphorus [1, 4] was 6.8 ± 0.2 and the Potassium [1, 4] was 4.6 ± 0.1 mEq/ L. For the same sequence, the Sodium [1, 4] was 153.3 ± 0.9 mEq/ L, the “Total Bilirubin” value [1, 4] was 0.12 ± 0.0 mg/dL and the “Total Protein” value [1, 4] was 4.6 ± 0.1 g/dL. The Cholesterol ([1]; mouse serum 48 hs after 150 picomoles, marked *) was 84.3 ± 3.5 mg/dL, the “Alanine Aminotransferase (ALT)” value [1, 5] was 20.0±1.0 U/L and the Albumin [1, 5] was 2.6 ± 0.0 g/dL. For the same sequence, the Alkaline phosphatase [1, 5] was 107.0 ± 7.8 U/L, the “Aspartate Aminotransferase (AST)” value [1, 5] was 53.7 ± 12.2 U/L and the “Blood Urea Nitrogen (BUN)” value [1, 5] was 26.7 ± 1.8 mg/dL. For the same sequence, the Calcium [1, 5] was 9.1 ± 0.2, the Chloride [1, 5] was 110.3 ± 0.3 mEq/ L and the Cholesterol [1, 5] was 82.7 ± 1.7 mg/dL. For the same sequence, the Creatinine [1, 5] was 0.2 ± 0.0 mg/dL, the “Creatinine Phosphokinase (CPK)” value [1, 5] was 156.3 ± 67.7 U/L and the “Direct Bilirubin” value [1, 5] was 0.0 ± 0.0 mg/dL. The Globulin [1, 5] was 1.9 ± 0.1 g/dL, the Glucose [1, 5] was 268.0 ± 20.1 mg/dL and the “Indirect Bilirubin” value [1, 5] was 0.1 ± 0.0 mg/dL. The Phosphorus [1, 5] was 7.4 ± 0.2, the Potassium [1, 5] was 4.9 ± 0.2 mEq/ L and the “Total Bilirubin” value [1, 5] was 0.1 ± 0.0 mg/dL. For the same sequence, the “Total Protein” value [1, 5] was 4.6 ± 0.1 g/dL, the Bicarbonate [1, 6] was 18.3 ± 0.3 mEq/ L and the Sodium [1, 6] was 150 ± 0.0 mEq/ L. The Km (thrombin (factor IIa)) was 0.2 ± 0.1 µM.

For “FVQWFSKFLGKLLPR [thrombin-treated PAR1–RIP]”, the “uptake of cell viability dye DRAQ7” value (Cells grown on plastic) was “uptake of cell viability dyes including DRAQ7”.
